Patent US20210308102A1 (priority 2018, published 2021)

Assays:
Conditions in all cases: human, in vivo
Presbyopic subjects [1] = tested on: Presbyopic subjects
Presbyopic subjects [2] = tested on: Presbyopic subjects; remark: listed apart in the source
Presbyopic subjects [3] = tested on: Presbyopic subjects; remark: listed apart in the source

SMILES: CN(C)C(=O)Oc1cccc([N+](C)(C)C)c1 [compound 1, neostigmine]
- share of the subjects with no tolerance problems (Presbyopic subjects [1]): One third
- time until symptoms gradually alleviated (Presbyopic subjects [1]): 30 min

SMILES: CNC(=O)Oc1ccc2c(c1)[C@]1(C)CCN(C)[C@@H]1N2C [compound 2, physostigmine]
- improvement of distance corrected near visual acuity, 0.25% eye drops compared with 1.5% eye drops (Presbyopic subjects [2]): more than 1.5% compound 2 eye drops
- duration of eye twitching (Presbyopic subjects [1]): 15 min
- duration of eyelid and eyeball twitching (Presbyopic subjects [1]): 15 min
- duration of headache (Presbyopic subjects [1]): 1 to 2 h
- duration of slightly inflexible eye mobility (Presbyopic subjects [1]): 3 to 4 h
- onset of eye twitching (Presbyopic subjects [1]): 15 min
- onset of eyelid and eyeball twitching (Presbyopic subjects [1]): 15 min
- time until eye irritation disappeared (Presbyopic subjects [1]): 10 min
- upper eyelid and eyeball adherence and mobility (Presbyopic subjects [1]): The upper eyelid and the eyeball were adhered tightly, and the mobility of the upper eyelid and eyeball was slightly weakened
- effect on miosis, 0.25% eye drops compared with 1.5% eye drops (Presbyopic subjects [3]): more than 1.5% compound 2 eye drops
- time at which efficacy reached the highest level (Presbyopic subjects [3]): 2 h
- time at which efficacy was still present (Presbyopic subjects [3]): ≥ 6 h

SMILES: CN(CCCCCCCCCCN(C)C(=O)Oc1cccc([N+](C)(C)C)c1)C(=O)Oc1cccc([N+](C)(C)C)c1 [compound 3, Demecarium bromide]
- duration of eye discomfort and conjunctival congestion (Presbyopic subjects [1]): 2 to 3 days
- ocular tolerance (Presbyopic subjects [1]): Half of the subjects began to suffer from eye discomfort and conjunctival congestion after several hours
- share of the subjects with no eye discomfort (Presbyopic subjects [1]): half
